ChEMBL document CHEMBL1143024, “Clavaminols A-F, novel cytotoxic 2-amino-3-alkanols from the ascidian Clavelina phlegraea” (Bioorg Med Chem, 2007)
≈ marks a conversion by molar mass, not a printed value. Calls of active or inactive are those of the source. The rule behind the calls is not given here.

Legend:
AGS = test: Cytotoxicity against human AGS cells after 24 hrs by calcein uptake assay; format: functional, cell-based
A549 = test: Cytotoxicity against human A549 cells after 24 hrs by calcein uptake assay; format: functional, cell-based
T47D = test: Cytotoxicity against human T47D cells after 24 hrs by calcein uptake assay; format: functional, cell-based
Jurkat [1] = test: Cell cycle arrest in human Jurkat cells assessed as accumulation at G1/S phase at 10 ug/mL after 18 hrs […]; format: functional, cell-based
Jurkat [2] = test: Induction of apoptosis in human Jurkat cells assessed as increase in hypodiploid cells at 10 ug/mL after 18 hrs by TUNEL method; format: functional

Compound	Activity (AGS)	Activity (A549)	Activity (T47D)	Activity (Jurkat [1])	Activity (Jurkat [2])	IC50 (AGS)
CCCCCCCCC[C@H](O)[C@@H](C)NC(C)=O	inactive					
CCCCCCCCC[C@H](OC(C)=O)[C@@H](C)N	inactive					
CCCCCCCCC[C@H](O)[C@@H](C)N [CLAVAMINOL A]		Active	Active	Active	44.6%	5 µg/mL (≈ 24.8 µM)
